Holding throughout (assay type): in vivo
The subject of series [1] is Beet Armyworm (Spodoptera exigua). In words: Bioassays on BAW, 128-well diet tray assay. To be noted: Spodoptera exigua, 168 h; 50 μg/cm^2 on artificial diet, second instar larvae, five to seven days; read-out: BAW % Control (or Mortality) rating.
Series [2] relates to Cabbage Looper (Trichoplusia ni). In words: Bioassays on CL, 128-well diet tray assay. To be noted: Trichoplusia ni, 168 h; 50 μg/cm^2 on artificial diet, second instar larvae, five to seven days; read-out: CL % Control (or Mortality) rating. The gist of the method: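 Test molecule at 50 μg/cm^2 applied to the artificial diet surface (acetone-water) and dried; one to five second-instar T. ni larvae per well, eight wells per treatment, held at 25° C., 14:10 light-dark for five to seven days. Percent mortality averaged over wells.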

Series [3] has as its system Green Peach Aphid (Myzus persicae). The series is described as follows: Bioassays on Green Peach Aphid, foliar spray on cabbage seedlings. Conditions: 72 h, 200 ppm spray on cabbage seedlings, three days, Abbott corrected % control, read-out: GPA % Control (or Mortality) rating. The method, then:
Cabbage seedlings grown in 3-inch pots, with 2-3 small (3-5 cm) true leaves, were used as test substrate. The seedlings were infested with 20-50 GPA (wingless adult and nymph stages) one day prior to chemical application. Four pots with individual seedlings were used for each treatment. Test molecules (2 mg) were dissolved in 2 mL of acetone/methanol (1:1) solvent, forming stock solutions of 1000 ppm test molecule. The stock solutions were diluted 5× with 0.025% Tween 20 in water to obtain the solution at 200 ppm test molecule. A hand-held aspirator-type sprayer was used for spraying a solution to both sides of […] leaves until runoff. Reference plants (solvent check) were sprayed with the diluent only containing 20% by volume of acetone/methanol (1:1) solvent. Treated plants were held in a holding room for three days at approximately 25° C. and ambient relative humidity (RH) prior to grading. Evaluation was conducted by counting the number of live aphids per plant under a microscope. Percent Control was measured by using Abbott's correction formula (W. S. Abbott, “A Method of Computing the Effectiveness of an Insecticide” J. Econ. Entomol. 18 (1925), pp. 265-267) as follows.
Corrected % Control=100*(X−Y)/X • where • X=No. of live aphids on solvent check plants and • Y=No. of live aphids on treated plants

Series [4] concerns Yellow Fever Mosquito (Aedes aegypti). The series is described as follows: Bioassays on Yellow Fever Mosquito larvae, 96-well plate. To be noted: from 4000 ppm DMSO master plate, about 1 day-old larvae, 3 days. The gist of the method:
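Aedes aegypti larvae about 1 day old, in water with liver powder, exposed in 96-well plates to compounds from a 4000 ppm DMSO master solution diluted in 90:10 water:acetone. Plates covered and held at room temperature for 3 days, then each well scored for mortality; 6 replicate plates.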

`C[C@H](CSCC(F)(F)F)NC(=O)c1ccc(/C=C/C(c2cc(Cl)c(Cl)c(Cl)c2)C(F)(F)F)cc1C(F)(F)F` (stereo partly drawn) [F22, 4-((E)-4,4,4-trifluoro-3-(3,4,5-trichlorophenyl)but-1-en-1-yl)-N—((R)-1-((2,2,2-trifluoroethyl)thio)propan-2-yl)-2-(trifluoromethyl)benzamide]: the mortality at 50 µg/cm2 in series [1] and in series [2] was 50 to 100% throughout. Besides, the mortality (in general, the share of the test organisms that died) at 200 ppm in series [3] is 80 to 100%. Further, in series [4], the “YFM % Control (or Mortality) rating” value is given as “A (80-100)”.
For `CS(=O)(=O)CC[C@@H](NC(=O)c1ccc(/C=C/C(c2cc(Cl)c(Cl)c(Cl)c2)C(F)(F)F)cc1Br)C(=O)NCC(F)(F)F` (stereo partly drawn) [F25, 2-bromo-N—((R)-4-(methylsulfonyl)-1-oxo-1-((2,2,2-trifluoroethyl)amino)butan-2-yl)-4-((E)-4,4,4-trifluoro-3-(3,4,5-trichlorophenyl)but-1-en-1-yl)benzamide], the mortality at 50 µg/cm2 in series [1] and in series [2] was 50 to 100% throughout. The mortality at 200 ppm in series [3] was 0 to 80%. Besides, in series [4], the “YFM % Control (or Mortality) rating” value is “A (80-100)”.
As for `CS(=O)(=O)CC[C@@H](NC(=O)c1ccc(/C=C/C(c2cc(Cl)c(Cl)c(Cl)c2)C(F)(F)F)cc1C(F)(F)F)C(=O)NCC(F)(F)F` (stereo partly drawn) [F26, N—((R)-4-(Methylsulfonyl)-1-oxo-1-((2,2,2-trifluoroethyl)amino)butan-2-yl)-4-((E)-4,4,4-trifluoro-3-(3,4,5-trichlorophenyl)but-1-en-1-yl)-2-(trifluoromethyl)benzamide], the mortality at 50 µg/cm2 in series [1] and in series [2] was 50 to 100% each time. Moreover, in series [3], the mortality at 200 ppm fell in the range of 0 to 80%. In addition, in series [4], the “YFM % Control (or Mortality) rating” value is on record as “B (More than 0-Less than 80)”.
For `C[C@H](CS(=O)(=O)CC(F)(F)F)NC(=O)c1ccc(/C=C/C(c2cc(Br)c(Cl)c(Br)c2)C(F)(F)F)cc1C(F)(F)F` (stereo partly drawn) [F59, 4-((E)-3-(3,5-Dibromo-4-chlorophenyl)-4,4,4-trifluorobut-1-en-1-yl)-N—((R)-1-((2,2,2-trifluoroethyl)sulfonyl)propan-2-yl)-2-(trifluoromethyl)benzamide], the mortality at 50 µg/cm2 in series [1] and in series [2] was 50 to 100% throughout. Also, in series [3], the mortality at 200 ppm worked out at 0%.
For the compound `C[C@H](CC[S+]([O-])CC(F)(F)F)NC(=O)c1ccc(/C=C/C(c2cc(Cl)c(Cl)c(Cl)c2)C(F)(F)F)cc1C(F)(F)F` (stereo partly drawn) [F105, 4-((E)-4,4,4-Trifluoro-3-(3,4,5-trichlorophenyl)but-1-en-1-yl)-N-((2R)-4-((2,2,2-trifluoroethyl)sulfinyl)butan-2-yl)-2-(trifluoromethyl)benzamide], the mortality at 50 µg/cm2 in series [1] and in series [2] was 50 to 100% throughout. For the same compound, the “YFM % Control (or Mortality) rating” value in series [4] was “A (80-100)”.
Take `C[C@H](CCS(=O)(=O)CC(F)(F)F)NC(=O)c1ccc(/C=C/C(c2cc(Cl)c(Cl)c(Cl)c2)C(F)(F)F)cc1C(F)(F)F` (stereo partly drawn) [F106, 4-((E)-4,4,4-Trifluoro-3-(3,4,5-trichlorophenyl)but-1-en-1-yl)-N—((R)-4-((2,2,2-trifluoroethyl)sulfonyl)butan-2-yl)-2-(trifluoromethyl)benzamide]: the mortality at 50 µg/cm2 in series [1] and in series [2] was 50 to 100% each time. Further, the “YFM % Control (or Mortality) rating” value in series [4] was “A (80-100)”.
On to `C[C@H](CSCC(F)(F)F)NC(=O)c1ccc(/C=C/C(c2cc(Cl)c(C#N)c(Cl)c2)C(F)(F)F)cc1C(F)(F)F` (stereo partly drawn) [F109, 4-((E)-3-(3,5-Dichloro-4-cyanophenyl)-4,4,4-trifluorobut-1-en-1-yl)-N—((R)-1-((2,2,2-trifluoroethyl)thio)propan-2-yl)-2-(trifluoromethyl)benzamide], for which the mortality at 50 µg/cm2 in series [1] and in series [2] was 50 to 100% in each case. The “YFM % Control (or Mortality) rating” value in series [4] is recorded as “A (80-100)”.
With `O=C(NC1(CSCC(F)(F)F)CC1)c1ccc(/C=C/C(c2cc(Cl)c(Cl)c(Cl)c2)C(F)(F)F)cc1C(F)(F)F` (stereo not drawn) [F110, (E)-4-(4,4,4-Trifluoro-3-(3,4,5-trichlorophenyl)but-1-en-1-yl)-N-(1-(((2,2,2-trifluoroethyl)thio)methyl)cyclopropyl)-2-(trifluoromethyl)benzamide], the mortality at 50 µg/cm2 in series [1] and in series [2] was 50 to 100% throughout. Besides, the “YFM % Control (or Mortality) rating” value in series [4] is “A (80-100)”.
Turning to `O=C(NC1(CS(=O)(=O)CC(F)(F)F)CC1)c1ccc(/C=C/C(c2cc(Cl)c(Cl)c(Cl)c2)C(F)(F)F)cc1C(F)(F)F` (stereo not drawn) [F112, (E)-4-(4,4,4-Trifluoro-3-(3,4,5-trichlorophenyl)but-1-en-1-yl)-N-(1-(((2,2,2-trifluoroethyl)sulfonyl)methyl)cyclopropyl)-2-(trifluoromethyl)benzamide], the mortality at 50 µg/cm2 in series [1] and in series [2] was 50 to 100% each time. Also, the “YFM % Control (or Mortality) rating” value in series [4] is “A (80-100)”.
Regarding `CCSC(CNC(=O)c1ccc(/C=C/C(c2cc(Cl)c(Cl)c(Cl)c2)C(F)(F)F)cc1C(F)(F)F)SCC` (stereo not drawn) [F113, (E)-N-(2,2-Bis(ethylthio)ethyl)-4-(4,4,4-trifluoro-3-(3,4,5-trichlorophenyl)but-1-en-1-yl)-2-(trifluoromethyl)benzamide], the mortality at 50 µg/cm2 in series [1] and in series [2] was 50 to 100% each time. The “YFM % Control (or Mortality) rating” value in series [4] is on record as “A (80-100)”.
For `C[C@H](CS(=O)(=O)CC(F)(F)F)NC(=O)c1ccc(/C=C/C(c2cc(Cl)c(Cl)c(Cl)c2)C(F)F)cc1C(F)(F)F` (stereo partly drawn) [F118, 4-((E)-4,4-Difluoro-3-(3,4,5-trichlorophenyl)but-1-en-1-yl)-N—((R)-1-((2,2,2-trifluoroethyl)sulfonyl)propan-2-yl)-2-(trifluoromethyl)benzamide], the mortality at 50 µg/cm2 in series [1] and in series [2] was 50 to 100% each time. Further, the “YFM % Control (or Mortality) rating” value in series [4] is “A (80-100)”.
Regarding `NC(=O)[C@H](CSCC(F)(F)F)NC(=O)c1ccc(/C=C/C(c2cc(Cl)c(Cl)c(Cl)c2)C(F)(F)F)cc1C(F)(F)F` (stereo partly drawn) [F125, N—((R)-1-Amino-1-oxo-3-((2,2,2-trifluoroethyl)thio)propan-2-yl)-4-((E)-4,4,4-trifluoro-3-(3,4,5-trichlorophenyl)but-1-en-1-yl)-2-(trifluoromethyl)benzamide], the mortality at 50 µg/cm2 in series [1] and in series [2] was 50 to 100% in each case. Besides, in series [4], the “YFM % Control (or Mortality) rating” value is reported as “A (80-100)”.
Regarding `CC(F)(F)C(/C=C/c1ccc(C(=O)NCCS(=O)(=O)CC(F)(F)F)c(C(F)(F)F)c1)c1cc(Cl)c(Cl)c(Cl)c1` (stereo not drawn) [F126, (E)-4-(4,4-Difluoro-3-(3,4,5-trichlorophenyl)pent-1-en-1-yl)-N-(2-((2,2,2-trifluoroethyl)sulfonyl)ethyl)-2-(trifluoromethyl)benzamide], the mortality at 50 µg/cm2 in series [1] and in series [2] was 50 to 100% in each case. Also, the “YFM % Control (or Mortality) rating” value in series [4] was “B (More than 0-Less than 80)”.
`C[C@H](CS(=O)(=O)CC(F)(F)F)NC(=O)c1ccc(/C=C/C(c2cc(Cl)c(F)c(Cl)c2)C(C)(F)F)cc1C(F)(F)F` (stereo partly drawn) [F131, 4-((E)-3-(3,5-Dichloro-4-fluorophenyl)-4,4-difluoropent-1-en-1-yl)-N—((R)-1-((2,2,2-trifluoroethyl)sulfonyl)propan-2-yl)-2-(trifluoromethyl)benzamide]: the mortality at 50 µg/cm2 in series [1] and in series [2] was 50 to 100% each time. In addition, the “YFM % Control (or Mortality) rating” value in series [4] is “D (No activity noticed in this bioassay)”.
With `C[C@H](CS(=O)(=O)CC(F)(F)F)NC(=O)c1ccc(/C=C/C(c2cc(Cl)cc(Cl)c2)C(C)(F)F)cc1Cl` (stereo partly drawn) [F132, 2-Chloro-4-((E)-3-(3,5-dichlorophenyl)-4,4-difluoropent-1-en-1-yl)-N—((R)-1-((2,2,2-trifluoroethyl)sulfonyl)propan-2-yl)benzamide], the mortality at 50 µg/cm2 in series [1] and in series [2] was 50 to 100% in each case. In series [4], the “YFM % Control (or Mortality) rating” value is recorded as “B (More than 0-Less than 80)”.
As for `C[C@H](CS(=O)(=O)CC(F)(F)F)NC(=O)c1ccc(/C=C/C(c2cc(Cl)cc(Cl)c2)C(C)(F)F)cc1C(F)(F)F` (stereo partly drawn) [F134, 4-((E)-3-(3,5-Dichlorophenyl)-4,4-difluoropent-1-en-1-yl)-N—((R)-1-((2,2,2-trifluoroethyl)sulfonyl)propan-2-yl)-2-(trifluoromethyl)benzamide], the mortality at 50 µg/cm2 in series [1] and in series [2] was 50 to 100% each time. Further, in series [4], the “YFM % Control (or Mortality) rating” value is reported as “A (80-100)”.

Source of the values: patent US20170210723A1, “MOLECULES HAVING PESTICIDAL UTILITY, AND INTERMEDIATES, COMPOSITIONS, AND PROCESSES, RELATED THERETO” (priority 2016, published 2017).
